One data set deals with 786-O. The experiment in a line: Antiproliferation assay (Alamar Blue), 786-O. The format is cell-based. Particulars: Homo sapiens, 786-0, renal cancer, read-out: EC50 of YL001. Here is the method: (§1) Cytotoxic activities of the compounds of interest were investigated with human cancer cell lines using the Alamar Blue assay. Cells (5 × 10^3 cells/well) were seeded into 96-well plates (Corning, 3603). Various sample concentrations (compounds of interest) were added to each well in duplicate, and incubated at 37°C with 5% CO2 for two days such that cells were in the exponential growth phase at the time of drug addition. Ten microliters of the Alamar Blue Solution (Invitrogen, Alamar Blue) were added to each well and incubated at 37°C for up to 2 hours in a humidified, 5% CO2 atmosphere. After incubation, florescence was measured using a microplate reader (Tecan) at an excitation wavelength of 540 nm and emission of 590 nm. Each inhibitory concentration was measured in triplicate, and averaged data points ± SD are shown. Statistical analysis was carried out with GraphPad Prism 5 and the fifty-percent effective concentration is expressed as EC50.
(Resazurin is reduced to fluorescent resorufin, in cell work by metabolically active cells.)

The subject of another data set is Huh7. Description: Antiproliferation assay (Alamar Blue), Huh7. The format is cell-based. The conditions noted are these: Homo sapiens, Huh-7; Huh7, liver cancer; read-out: EC50 of YL001. Here is the method:
as §1

Data set [1] concerns panel of 468 typical, atypical and mutant human kinases. Description: Kinase profiling (KINOMEscan, DiscoverX). The conditions noted are these: 468 kinases, 1 μM. In kind it is binding. The protocol: Kinase profiling was conducted by the DiscoverX as KINOMEscan profiling service for testing the inhibition of YL001 of interest against 468 kinases. Selectivity score S(35) was defined as follows:
S(35) = (number of non-mutant kinases with% Control < 35)/(number of non-mutant kinases tested).

A further data set deals with K562. Description: Antiproliferation assay (Alamar Blue), K562. In kind it is cell-based. The conditions noted are these: Homo sapiens; K562, leukemia; read-out: EC50 of YL001. Here is the method: as §1
The test system of the next data set is HCT116. The experiment in a line: Antiproliferation assay (Alamar Blue), HCT116. In kind it is cell-based. Particulars: Homo sapiens, HCT-116; HCT116, colon cancer; read-out: EC50 of YL001. Here is the method:
as §1

Another data set deals with MCF-7. The experiment in a line: Antiproliferation assay (Alamar Blue), MCF-7. Particulars: Homo sapiens, MCF7; MCF-7, breast cancer; read-out: EC50 of YL001. In kind it is cell-based. Here is the method: as §1
Another data set relates to A549. The experiment in a line: Antiproliferation assay (Alamar Blue), A549. In kind it is cell-based. Particulars: Homo sapiens; A549, lung cancer; read-out: EC50 of YL001. Here is the method:
as §1

Another data set relates to HT1080. Description: Antiproliferation assay (Alamar Blue), HT1080. Particulars: read-out: EC50 of YL001. In kind it is cell-based, Human. Here is the method:
as §1

Data set [2] deals with human and rodent cancer cell lines. The experiment in a line: Antiproliferative activity over the panel of 15 cancer cell lines. The format is cell-based. Particulars: 15 cell lines tested, read-out: EC50 values predominantly in the range. Here is the method:
as §1

The test system of another data set is CNE-2Z. Description: Antiproliferation assay (Alamar Blue), CNE-2Z. The conditions noted are these: Homo sapiens, CNE2Z, nasopharyngeal cancer, read-out: EC50 of YL001. In kind it is cell-based. The protocol: as §1
The next data set concerns HeLa cells. The experiment in a line: Monopolar spindle phenotype, high content imaging. The format is cell-based. The conditions noted are these: Homo sapiens, 8 hours, analyzed with Columbus, read-out: EC50 for monopolar spindles. Here is the method: HeLa cells (5 × 10^3 cells/well) were seeded in 96-well plates (Corning, 3603). Drugs were diluted appropriately in medium from 10 mM stocks in 100% DMSO and added to the cells. Following 8 hours incubation with drugs, cells were fixed with 4% paraformaldehyde (20 minutes at room temperature), permeabilized with PBST (0.5% Triton X-100 in PBS) for 15 minutes, and washed before blocking. Cells were blocked with 4% BSA for at least 30 minutes at room temperature and stained with anti-β-tubulin monoclonal antibodies (Sigma) at 400-fold dilution for 1 hour with Alexafluor 488-conjugated goat anti-mouse secondary antibodies (Invitrogen) at 300-fold dilution for 1 hour. DNA was detected with 4′,6-diamidino-2-phenylindole dihydrochloride (DAPI). Actin was detected with Phalloidin. High content screening (Perkin Elmer Operetta) was used to photograph stained cells at 40× magnification, and Columbus software was used for statistical analysis of the percentage of mitotic cells with monopolar spindles present in treated cells over the total number of cells in mitosis counted after 8 hours incubation with drugs.

The target of the next data set is Eg5 (Homo sapiens, UniProt P52732). Description: Inhibition of Eg5 ATPase activity. In kind it is biochemical. The conditions noted are these: read-out: Enzyme EC50. Here is the method: All experiments were performed as previously described. Data were analyzed using GraphPad Prism 5 and Microsoft Excel to obtain EC50 values. […] Each inhibitory concentration was measured in triplicate, and averaged data points ± SD are shown.

A short description of data set [3]: Dose range testing in healthy mice without tumor. In kind it is in vivo. The conditions noted are these: healthy B6 mice without tumor; taking into consideration the solubility.

Like-named read-outs stand apart in the source and are kept apart here.

Eg5, sequence (P52732 whole entry): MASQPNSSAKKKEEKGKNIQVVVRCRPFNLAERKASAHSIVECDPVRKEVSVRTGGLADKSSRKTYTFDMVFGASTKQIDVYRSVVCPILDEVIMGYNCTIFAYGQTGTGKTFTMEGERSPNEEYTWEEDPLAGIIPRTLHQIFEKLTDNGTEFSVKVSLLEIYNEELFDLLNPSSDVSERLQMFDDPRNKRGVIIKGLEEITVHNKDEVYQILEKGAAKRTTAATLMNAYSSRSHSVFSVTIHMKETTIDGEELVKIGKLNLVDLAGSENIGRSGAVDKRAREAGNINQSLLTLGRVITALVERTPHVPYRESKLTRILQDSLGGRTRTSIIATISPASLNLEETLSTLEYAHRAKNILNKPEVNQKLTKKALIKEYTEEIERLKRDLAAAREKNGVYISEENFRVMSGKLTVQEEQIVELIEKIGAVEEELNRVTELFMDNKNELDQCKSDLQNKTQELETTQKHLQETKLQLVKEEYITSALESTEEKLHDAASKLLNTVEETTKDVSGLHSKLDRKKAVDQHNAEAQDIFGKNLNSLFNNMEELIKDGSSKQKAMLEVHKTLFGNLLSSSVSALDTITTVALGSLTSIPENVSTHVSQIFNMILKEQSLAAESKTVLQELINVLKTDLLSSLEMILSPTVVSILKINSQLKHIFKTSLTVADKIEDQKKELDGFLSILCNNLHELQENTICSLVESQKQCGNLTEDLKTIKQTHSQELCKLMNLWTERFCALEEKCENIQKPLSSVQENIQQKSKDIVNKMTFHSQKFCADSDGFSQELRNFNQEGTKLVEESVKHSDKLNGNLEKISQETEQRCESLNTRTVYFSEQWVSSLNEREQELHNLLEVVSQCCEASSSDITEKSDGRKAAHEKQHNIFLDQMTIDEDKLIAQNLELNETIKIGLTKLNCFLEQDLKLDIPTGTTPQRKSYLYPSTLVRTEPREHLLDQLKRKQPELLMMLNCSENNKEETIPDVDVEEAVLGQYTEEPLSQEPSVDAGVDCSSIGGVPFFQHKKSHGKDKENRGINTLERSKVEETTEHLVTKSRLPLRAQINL

Consider `Cc1ccc(-n2nnnc2/C(=C/N(C)C)C(=O)c2cccc(C(F)(F)F)c2)cc1` [YL001, (Z)-3-(dimethylamino)-2-(1-(p-tolyl)-1H-tetrazol-5-yl)-1-(3-(trifluoromethyl)phenyl)prop-2-en-1-one], for which the 50% effective concentration (EC50) in the data set on 786-O worked out at 14.7 ± 0.62 µM; in the data set on Huh7, 14.6 ± 0.82 µM; in the data set with K562 it was 9.76 ± 0.52 µM; in the data set on HCT116, 9.04 ± 2.19 µM; in the data set with MCF-7 it was 14.9 ± 2.57 µM; in the data set with A549, 22.8 ± 0.72 µM. Moreover, the EC50 was 76.2 ± 0.77 µM in the data set with HT1080 (HT1080, fibrosarcoma); greater than 70 µM in the data set with HT1080 (Homo sapiens, HT-1080, HT1080, fibrosarcoma); 5 to 20 µM in [2]; 5.94 ± 0.02 µM in the data set on CNE-2Z; 15.3 µM with HeLa cells; 1.18 µM at Eg5. Also, the “activity against kinase panel” value in data set [1] is “no activity”. In data set [3], this compound came in with a maximal therapeutic dose of 200 mg/kg.

As usually defined, the EC50 is the concentration giving half of the maximal effect.
